These results are taken from patent publication US10214567B2, “Tagged hepadnavirus E antigen and its use in screening antiviral substances” (Drexel University, priority 2014, dated 2019).

Entries after “also recorded” stand apart in the source; their conditions may differ.

The assay deals with HA-HBeAg production from HepBHAe13 cells. Briefly: HA-HBeAg CLIA in HepBHAe13 cells treated with cccDNA formation inhibitors (96-well-plate). The assay is classed as cell-based, Hepatitis B virus (HBV). The settings on record: tetracycline removed, compounds at indicated concentrations, 0.5% DMSO, day 12 post treatment (FIG. 11). The text has this:
According to another aspect of the present invention, the in vitro assay method can be used to evaluate compounds/candidate molecules that suppress cccDNA formation. Briefly, cells can be seeded into culture wells and tetracycline can be omitted at the day when cell monolayer becomes confluent. Simultaneously, test compound can be added and tagged hepadnavirus e antigen (like HA-HBeAg) in the medium can be measured by ELISA at the end of treatment (approximately 6 days). […] As an expanding aspect of this in vitro assay method, it is worth to note that the reduction of tagged hepadnavirus e antigen (like HA-HBeAg) in this assay may also indicate that the compound has the potential to inhibit hepadnavirus (like HBV) DNA replication. Such possibility can be investigated through direct measurement of viral core DNA by Southern blot and/or qPCR. […]
FIG. 11. […] At day 12 post treatment, culture fluid was subjected to HA-HBeAg CLIA and readout was plotted as percentage (mean±SD) to control.
For chemiluminescence enzyme immunoassay (CLIA) detection of HA-tagged HBeAg, high sensitivity streptavidin coated plate (Black, cat#: 15525, Thermo Scientific) was washed by PBST (PBS plus 0.05% Tween 20) for 3 times, and then incubated with 50 μl of anti-HA-biotin (cat#: A00203, Genscript; 5 μg/ml in PBS) at RT for 30 min, followed by wash with 200 μl PBST for 3 times. […] The plate was read on a luminometer.

Consider `Cc1nc2cc(NC(=O)c3ccc(S(=O)(=O)N(C)Cc4ccccc4)cc3)ccc2s1` [CCC-0346], for which the “HA-HBeAg level in culture fluid (CLIA, percentage to control)” value is “dose-dependent inhibition of HA-HBeAg production; also recorded: dose dependently reduced the HA-HBeAg level”.

As for `O=C(CN(c1cc(C(F)(F)F)ccc1Cl)S(=O)(=O)c1ccccc1)NCc1ccncc1` [CCC-0975], the “HA-HBeAg level in culture fluid (CLIA, percentage to control)” value was “dose-dependent inhibition of HA-HBeAg production; also recorded: dose dependently reduced the HA-HBeAg level”.
